For six compounds, Ki results are on record in US6455587B1 (priority 2000, dated 2002).

pKi: −log10 of the molar value. Some results are limits rather than exact numbers.

The first assay has as its target T1, recombinant HIV-1 protease (Human immunodeficiency virus type 1 group M subtype B, UniProt P04585).
T1 construct: recombinant HIV-1 protease (final concentration 2.18 nM) purchased from Bachem Bioscience; purchased Bachem Bioscience
As to the kind of experiment: Enzymatic fluorometric (FRET) assay for determining the inhibition constant (Ki) against HIV protease. The settings on record: fluorometric FRET assay, 31° C., pH 4.7, recombinant HIV-1 protease 2.18 nM, substrate 10 μM; read-out: Ki. It is filed as biochemical. Summed up:
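FRET substrate (EDANS/DABCYL) cleavage followed at 31° C., ex 340/em 485 nm. Initial velocity recorded over 4 min, then inhibitor added at several concentrations and rate read another 4 min. Ki derived from v0 and vi via Henderson equation using [S] and Km.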
The pKi is −log10 of the Ki, conventionally taken in molar units. As for `COc1ccc(CCC(=O)NCCCC[C@@H](C(=O)O)N(CC(C)C)S(=O)(=O)c2ccc(N)cc2)c(OC)c1` [Compound 196, Nα-Isobutyl-Nα-(4-aminobenzenesulfonyl)-Nε-(2,4-dimethoxydihydrocinnamoyl)-L-lysine], the pKi is 7.77.

Staying with this assay, now noted: fluorometric FRET assay, recombinant HIV-1 protease, pH 4.7, 31° C.; read-out: Ki.
Turning to `CC(C)CN([C@@H](CCCCNC(=O)/C=C/c1cccnc1)C(=O)O)S(=O)(=O)c1ccc([N+](=O)[O-])cc1` [Compound 164, Nα-Isobutyl-Nα-(4-nitrobenzenesulfonyl)-Nε-(trans-3-(3-pyridyl)acryloyl)-L-lysine], the pKi was less than 6.52.

As for `O=C(CC1c2ccccc2-c2ccccc21)N[C@@H](CCCCNS(=O)(=O)c1ccc(Br)cc1)C(=O)O` [Compound 30, Nα-(9-Fluorenemethylcarbonyl)-Nε-(4-bromobenzenesulfonyl)-L-lysine], the pKi was 4.15.

For “Nα,Nδ-di-(4-Bromobenzenesulfonyl)-Nδ-(4-fluorobenzyl)-L-ornithine [Compound 59]”, the pKi was less than 6.70.

`COc1cccc(C=CC(=O)NCCCC[C@@H](C(=O)O)N(CC(C)C)S(=O)(=O)c2ccc([N+](=O)[O-])cc2)c1OC` [Compound 110, Nα-Isobutyl-Nα-(4-nitrobenzenesulfonyl)-Nε-(2,3-dimethoxycinnamoyl)-L-lysine]: the pKi is less than 6.52.

`CC(C)CN([C@@H](CCCCNC(=O)CCc1ccc2c(c1)OCO2)C(=O)O)S(=O)(=O)c1ccc(N)cc1` [Compound 155, Nα-Isobutyl-Nα-(4-aminobenzenesulfonyl)-Nε-(3,4-methylenedioxydihydrocinnamoyl)-L-lysine]: the pKi is 7.80.
